# From US20210161807A1, “IMPLANTABLE DEVICE FOR LOCALIZED DRUG DELIVERY, USES AND MANUFACTURING METHOD THEREOF” (FONDAZIONE ISTITUTO ITALIANO DI TECNOLOGIA, priority 2018, published 2021)
# Assay: Release of docetaxel from the polymer matrix of the device
# Format: physicochemical
# Conditions: Docetaxel incorporated in the polymer matrix in the form of powder
# Source text: The selected active ingredient may be appropriately incorporated into the polymer matrix in a form suitable for obtaining a prolonged release of the main active ingredient itself, without affecting the pharmacological activity thereof. For example, the Docetaxel incorporated in the polymer matrix in the form of powder is released up to 60 days after implantation. Longer release times may be easily achieved by incorporating the active ingredient, instead of in the form of powder, in its co-crystalline form. This solid form reduces the rate of dissolution, which is a necessary prerequisite for subsequent diffusion into the space surrounding the implanted device, […].
# To study the release profile, the μMESH device and the FLAT counterpart thereof were incubated in 1 ml of phosphate buffered saline (PBS), to mimic and maximize the volume of liquid to which the devices may be exposed in a local application. At different times, the solution was centrifuged at 5000 rpm for 10 min and the supernatant was analyzed using the protocol described above. The results are expressed as a percentage of the cumulative release over time of three samples for each type of device.
smiles,measurement,value
CC(=O)O[C@@]12CO[C@@H]1C[C@H](O)[C@@]1(C)C(=O)[C@H](O)C3=C(C)[C@@H](OC(=O)[C@H](O)[C@@H](NC(=O)OC(C)(C)C)c4ccccc4)C[C@@](O)([C@@H](OC(=O)c4ccccc4)[C@H]21)C3(C)C [Docetaxel],release time of active ingredient after implantation,up to 60 days
